Like-named read-outs stand apart in the source and are kept apart here. Where no end group is shown, it is not given here.
Legend:
HLA-A3101 = molecular target: T1, HLA-A3101 (Homo sapiens, UniProt P04439, A270S/D185E/E176V/E277Q/F33T/G231S/G80R/H175R/I121M/I218V/I322F/K168Q/L300P/L318F/M331R/P217A/Q94H/R138Q/T323A/T345S/T97I/V358M); experiment: Peptide competitive binding assay, HMy2.CIR cells expressing A3101; conditions: for IC50: read-out: Affinity
T1 construct: expressed in transfected cells; host or cells: HMy2.CIR

HLA-A1101 = molecular target: T2, HLA-A1101 (Homo sapiens, UniProt P04439, A114D/D185E/E176A/F33Y/L180Q/S129P/T187R); experiment: cell-based; assay type: binding; conditions: for inhibition at 5 µM / inhibition at 15 µM: 24 h; for inhibition at 5 µM: read-out: 5-μM inhibition (%); for inhibition at 15 µM: read-out: 15-μM inhibition (%)
T2 construct: expressed in transfected cells; host or cells: HMy2.CIR

HLA-A1102 = HLA-A1102 (Homo sapiens, UniProt P04439, A114D/D185E/E176A/E43K/F33Y/L180Q/S129P/T187R); experiment: cell-based; assay type: binding; conditions: 24 h; for inhibition at 5 µM: read-out: 5-μM inhibition (%); for inhibition at 15 µM: read-out: 15-μM inhibition (%)
HLA-A3303 = HLA-A3303 (Homo sapiens, UniProt P04439, A270S/D185E/E176V/E277Q/E87N/F33T/G231S/H175R/I121M/I218V/I322F/K168Q/L300P/L318F/M331R/P217A/Q86R/Q94H/R138Q/T323A/T345S/T97I/V358M); experiment: Peptide competitive binding assay, HMy2.CIR cells expressing A3303; conditions: for inhibition at 5 µM: peptide 5 μM vs FITC-labeled reference peptide 300 nM; for inhibition at 5 µM / inhibition at 15 µM: 24 h, 4°C, flow cytometry; for inhibition at 15 µM: peptide 15 μM vs FITC-labeled reference peptide 300 nM; for IC50: read-out: Affinity
HLA-A3001 = molecular target: T3, HLA-A3001 (Homo sapiens, UniProt P04439, D140H/D185E/E176W/F33S/G80R/H175R/K168Q/R138E/R41S); experiment: cell-based; assay type: binding
T3 construct: expressed in transfected cells; host or cells: HMy2.CIR

HLA-A0206 = molecular target: T4, HLA-A0206 (Homo sapiens, UniProt P04439, D140Y/D185E/D98H/E176V/E277Q/F33Y/G131W/G231S/I119V/I121R/I166T/I218V/L300P/L318F/N151K/N90K/P208A/P217A/Q86G/Q94H/R138H/R169H/T345S); experiment: Peptide competitive binding assay, HMy2.CIR cells expressing A0206; conditions: 24 h, 4°C, flow cytometry; for 5-μM inhibition (%): peptide 5 μM vs FITC-labeled reference peptide 300 nM; for 15-μM inhibition (%): peptide 15 μM vs FITC-labeled reference peptide 300 nM
T4 construct: expressed in transfected cells; host or cells: HMy2.CIR

HLA-A0207 = molecular target: T5, HLA-A0207 (Homo sapiens, UniProt P04439, D140Y/D185E/D98H/E176V/E277Q/G131W/G231S/I119V/I121R/I166T/I218V/L300P/L318F/N151K/N90K/P208A/P217A/Q86G/Q94H/R138H/R169H/T345S/Y123C); experiment: Peptide competitive binding assay, HMy2.CIR cells expressing A0207; conditions: 24 h, 4°C, flow cytometry
T5 construct: expressed in transfected cells; host or cells: HMy2.CIR

[1] = A3101, peptide 5 μM vs FITC-labeled reference peptide 300 nM, 24 h, 4°C, flow cytometry
[2] = A3101, peptide 15 μM vs FITC-labeled reference peptide 300 nM, 24 h, 4°C, flow cytometry
[3] = A1102, peptide 5 μM vs FITC-labeled reference peptide 300 nM, 4°C, flow cytometry
[4] = A1102, peptide 15 μM vs FITC-labeled reference peptide 300 nM, 4°C, flow cytometry
[5] = A1101, peptide 5 μM vs FITC-labeled reference peptide 300 nM, 4°C, flow cytometry
[6] = A1101, peptide 15 μM vs FITC-labeled reference peptide 300 nM, 4°C, flow cytometry
[7] = A3303, class from inhibition at 5 and 15 μM of FITC-labeled reference peptide binding
[8] = A3001, peptide 5 μM vs FITC-labeled reference peptide 300 nM, 24 h, 4°C, flow cytometry
[9] = A3001, peptide 15 μM vs FITC-labeled reference peptide 300 nM, 24 h, 4°C, flow cytometry

Compound: CC[C@H](C)[C@H](NC(=O)[C@H](Cc1ccccc1)NC(=O)[C@@H](NC(=O)[C@H](C)N)C(C)C)C(=O)N[C@@H](Cc1c[nH]cn1)C(=O)N[C@@H](CC(N)=O)C(=O)N[C@@H](Cc1ccccc1)C(=O)N[C@@H](CCCCN)C(=O)N[C@@H](CCCNC(=N)N)C(=O)O [Peptide P41]
- inhibition at 5 µM (HLA-A3101; [1]): 63.4%
- inhibition at 15 µM (HLA-A3101; [2]): 96%
- IC50 (HLA-A3101): < 5 µM
- IC50 (HLA-A1101): < 5 µM
- inhibition at 5 µM (HLA-A1101): 83.8%
- inhibition at 15 µM (HLA-A1101): 86.8%
- inhibition at 5 µM (HLA-A1102): 1.73%
- inhibition at 15 µM (HLA-A1102): 21.5%
- inhibition at 5 µM (HLA-A3303; A3303): 71%
- inhibition at 15 µM (HLA-A3303; A3303): 89.8%
- IC50 (HLA-A3303): < 5 µM

Compound: AAGTGSSSK [Peptide P86]
- 5-μM inhibition (%) (HLA-A1102; [3]): 1.04%
- 15-μM inhibition (%) (HLA-A1102; [4]): 3.12%

Compound: ASRELERFA [Peptide P90]
- IC50 (HLA-A3001): 5 to 15 µM
- inhibition at 5 µM (HLA-A3001; A3001, peptide 5 μM vs FITC-labeled reference peptide 300 nM, 24 h, 4°C, flow cytometry, read-out: 5-μM inhibition (%)): 17.7%
- inhibition at 15 µM (HLA-A3001; A3001, peptide 15 μM vs FITC-labeled reference peptide 300 nM, 24 h, 4°C, flow cytometry, read-out: 15-μM inhibition (%)): 58%

Compound: ATLWCVHQR [Peptide P34]
- IC50 (HLA-A1101; A1101, class from inhibition at 5 and 15 μM of FITC-labeled reference peptide binding, read-out: Affinity): 5 to 15 µM
- inhibition at 5 µM (HLA-A1101; [5]): 44%
- inhibition at 15 µM (HLA-A1101; [6]): 77.8%
- inhibition at 5 µM (HLA-A1102; [3]): 3.12%
- inhibition at 15 µM (HLA-A1102; [4]): 13.8%
- IC50 (HLA-A3303; [7]): < 5 µM
- inhibition at 5 µM (HLA-A3303; A3303): 63.8%
- inhibition at 15 µM (HLA-A3303; A3303): 77.2%

Compound: FVNTPPLVK [Peptide P44]
- IC50 (HLA-A1101): < 5 µM
- inhibition at 5 µM (HLA-A1101; [5]): 84.5%
- inhibition at 15 µM (HLA-A1101; [6]): 92.7%
- inhibition at 5 µM (HLA-A1102; [3]): 6.01%
- inhibition at 15 µM (HLA-A1102; [4]): 26.1%

Compound: IQNFRVYYR [Peptide P112]
- inhibition at 5 µM (HLA-A3101; [1]): 20.1%
- inhibition at 15 µM (HLA-A3101; [2]): 25.7%
- inhibition at 5 µM (HLA-A3303; A3303): 48.7%
- inhibition at 15 µM (HLA-A3303; A3303): 55.1%
- IC50 (HLA-A3303): 5 to 15 µM

Compound: KAREFSSER [Peptide P100]
- IC50 (HLA-A3101; A3101, class from inhibition at 5 and 15 μM of FITC-labeled reference peptide binding): 5 to 15 µM
- inhibition at 5 µM (HLA-A3101; [1]): 42.9%
- inhibition at 15 µM (HLA-A3101; [2]): 95.1%

Compound: KIILVAVHV [Peptide P75]
- 5-μM inhibition (%) (HLA-A0206): 3.69%
- 15-μM inhibition (%) (HLA-A0206): 5.11%

Compound: KIVRMYSPV [Peptide P71]
- 5-μM inhibition (%) (HLA-A0206): 6.54%
- 15-μM inhibition (%) (HLA-A0206): 14.21%

Compound: KVILVAVHV [Peptide P74]
- 5-μM inhibition (%) (HLA-A0206): 20.64%

Compound: KVLKQVTEK [Peptide P87]
- 5-μM inhibition (%) (HLA-A1102; [3]): 5.66%
- 15-μM inhibition (%) (HLA-A1102; [4]): 16.76%

Compound: KVVPRRKAK [Peptide P93]
- 5-μM inhibition (%) (HLA-A3001; [8]): 16.92%
- 15-μM inhibition (%) (HLA-A3001; [9]): 41.10%

Compound: KVYLSWVPA [Peptide P94]
- 5-μM inhibition (%) (HLA-A3001; [8]): 27.40%
- 15-μM inhibition (%) (HLA-A3001; [9]): 45.93%

Compound: LVDTIAIAV [Peptide P77]
- 5-μM inhibition (%) (HLA-A0207; peptide 5 μM vs FITC-labeled reference peptide 300 nM): 9.36%
- 15-μM inhibition (%) (HLA-A0207; peptide 15 μM vs FITC-labeled reference peptide 300 nM): 23.40%

Compound: MAHQPLSPR [Peptide P111]
- inhibition at 5 µM (HLA-A1102; [3]): 4.16%
- inhibition at 15 µM (HLA-A1102; [4]): 20.6%
- IC50 (HLA-A3303; [7]): < 5 µM
- inhibition at 5 µM (HLA-A3303; A3303): 78.2%
- inhibition at 15 µM (HLA-A3303; A3303): 89.2%

Compound: MTKILEPFR [Peptide P102]
- inhibition at 5 µM (HLA-A3101; [1]): 60.2%
- inhibition at 15 µM (HLA-A3101; [2]): 88.3%
- IC50 (HLA-A3101): < 5 µM
- inhibition at 5 µM (HLA-A3303; A3303): 69.5%
- inhibition at 15 µM (HLA-A3303; A3303): 70%
- IC50 (HLA-A3303): < 5 µM

Compound: MVHQPISPR [Peptide P103]
- inhibition at 5 µM (HLA-A3101; [1]): 65.4%
- inhibition at 15 µM (HLA-A3101; [2]): 79.2%
- IC50 (HLA-A3101): < 5 µM
- inhibition at 5 µM (HLA-A1102; [3]): 3.81%
- inhibition at 15 µM (HLA-A1102; [4]): 13.4%
- inhibition at 5 µM (HLA-A3303; A3303): 70.2%
- inhibition at 15 µM (HLA-A3303; A3303): 99.5%
- IC50 (HLA-A3303): < 5 µM

Compound: NLKTGKYAR [Peptide P101]
- 5-μM inhibition (%) (HLA-A3101; [1]): 32.90%
- 15-μM inhibition (%) (HLA-A3101; [2]): 41.10%

Compound: QIINMWQEV [Peptide P73]
- 5-μM inhibition (%) (HLA-A0206): 25.71%
- 15-μM inhibition (%) (HLA-A0206): 27.84%
